Assay results: ChEMBL document CHEMBL1201862, “PubChem BioAssay data set” (2004)
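Values below derive from 48-hour exposures of cells grown in 96-well plates, with endpoints linearly interpolated between the two concentrations bracketing the appropriate inhibition level. GI50: concentration for 50% inhibition of growth.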 Calls of active or inactive are those of the source. Rule as the data show it: active = GI50 up to about 1.1 µM and inactive = higher.

Experiments:
Assay in all cases: inhibition of tumour cell growth, NCI panel, 48 h
MDA-N = test system: MDA-N
Malme-3M = test system: Malme-3M
HOP-92 = test system: HOP-92
RXF 393 = test system: RXF 393
HOP-62 = test system: HOP-62
HL-60 = test system: HL-60
MOLT-4 = test system: MOLT-4
SF-295 = test system: SF-295
UO-31 = test system: UO-31
IGROV-1 = test system: IGROV-1
SW-620 = test system: SW-620
M14 = test system: M14
SK-MEL-5 = test system: SK-MEL-5
RPMI-8226 = test system: RPMI-8226
SN12C = test system: SN12C
SK-MEL-28 = test system: SK-MEL-28
SK-OV-3 = test system: SK-OV-3
COLO 205 = test system: COLO 205
U-251 = test system: U-251
CAKI-1 = test system: CAKI-1
BT-549 = test system: BT-549
LOX IMVI = test system: LOX IMVI
UACC-257 = test system: UACC-257
A498 = test system: A498
786-0 = test system: 786-0
KM12 = test system: KM12
NCI-H522 = test system: NCI-H522
Hs-578T = test system: Hs-578T
OVCAR-3 = test system: OVCAR-3
ACHN = test system: ACHN
SNB-19 = test system: SNB-19
OVCAR-8 = test system: OVCAR-8
K562 = test system: K562
OVCAR-5 = test system: OVCAR-5
TK-10 = test system: TK-10
SF-539 = test system: SF-539
SNB-75 = test system: SNB-75
MCF7 = test system: MCF7
OVCAR-4 = test system: OVCAR-4
NCI/ADR-RES = test system: NCI/ADR-RES
NCI-H23 = test system: NCI-H23
UACC-62 = test system: UACC-62
HCT-116 = test system: HCT-116
PC-3 = test system: PC-3
NCI-H460 = test system: NCI-H460
MDA-MB-231 = test system: MDA-MB-231
A549 = test system: A549
DU-145 = test system: DU-145
HCT-15 = test system: HCT-15
CCRF-CEM = test system: CCRF-CEM
SK-MEL-2 = test system: SK-MEL-2
T47D = test system: T47D
HT-29 = test system: HT-29
SR = test system: SR
NCI-H226 = test system: NCI-H226
EKVX = test system: EKVX
MDA-MB-435 = test system: MDA-MB-435
SF-268 = test system: SF-268
HCC 2998 = test system: HCC 2998

For `NC(CC(=O)O)(Cc1ccccc1)C(=O)O` (stereo not drawn), the GI50 (MDA-N) was > 100 µM (inactive), the GI50 (Malme-3M) was > 100 µM (inactive) and the GI50 (HOP-92) was > 100 µM (inactive). The GI50 (RXF 393) was > 100 µM (inactive), the GI50 (HOP-62) was > 100 µM (inactive) and the GI50 (HL-60) was > 100 µM (inactive). The GI50 (MOLT-4) was > 100 µM (inactive), the GI50 (SF-295) was > 100 µM (inactive) and the GI50 (UO-31) was > 100 µM (inactive). The GI50 (IGROV-1) was > 100 µM (inactive), the GI50 (SW-620) was > 100 µM (inactive) and the GI50 (M14) was > 100 µM (inactive). The GI50 (SK-MEL-5) was > 100 µM (inactive), the GI50 (RPMI-8226) was > 100 µM (inactive) and the GI50 (SN12C) was > 100 µM (inactive). The GI50 (SK-MEL-28) was > 100 µM (inactive), the GI50 (SK-OV-3) was > 100 µM (inactive) and the GI50 (COLO 205) was > 100 µM (inactive). For the same molecule, the GI50 (U-251) was > 100 µM (inactive), the GI50 (CAKI-1) was > 100 µM (inactive) and the GI50 (BT-549) was > 100 µM (inactive). The GI50 (LOX IMVI) was > 100 µM (inactive), the GI50 (UACC-257) was > 100 µM (inactive) and the GI50 (A498) was > 100 µM (inactive). The GI50 (786-0) was > 100 µM (inactive), the GI50 (KM12) was > 100 µM (inactive) and the GI50 (NCI-H522) was > 100 µM (inactive). The GI50 (Hs-578T) was > 100 µM (inactive), the GI50 (OVCAR-3) was > 100 µM (inactive) and the GI50 (ACHN) was > 100 µM (inactive). For the same molecule, the GI50 (SNB-19) was > 100 µM (inactive), the GI50 (OVCAR-8) was > 100 µM (inactive) and the GI50 (K562) was > 100 µM (inactive). The GI50 (OVCAR-5) was > 100 µM (inactive), the GI50 (TK-10) was > 100 µM (inactive) and the GI50 (SF-539) was > 100 µM (inactive). The GI50 (SNB-75) was > 100 µM (inactive), the GI50 (MCF7) was > 100 µM (inactive) and the GI50 (OVCAR-4) was > 100 µM (inactive). The GI50 (NCI/ADR-RES) was > 100 µM (inactive), the GI50 (NCI-H23) was > 100 µM (inactive) and the GI50 (UACC-62) was > 100 µM (inactive). For the same molecule, the GI50 (HCT-116) was > 100 µM (inactive), the GI50 (PC-3) was > 100 µM (inactive) and the GI50 (NCI-H460) was > 100 µM (inactive). For the same molecule, the GI50 (MDA-MB-231) was > 100 µM (inactive), the GI50 (A549) was > 100 µM (inactive) and the GI50 (DU-145) was > 100 µM (inactive). For the same molecule, the GI50 (HCT-15) was > 100 µM, the GI50 (CCRF-CEM) was > 100 µM (inactive) and the GI50 (SK-MEL-2) was > 100 µM (inactive). For the same molecule, the GI50 (T47D) was > 100 µM (inactive), the GI50 (HT-29) was > 100 µM (inactive) and the GI50 (SR) was > 100 µM (inactive). For the same molecule, the GI50 (NCI-H226) was > 100 µM (inactive), the GI50 (EKVX) was > 100 µM (inactive) and the GI50 (MDA-MB-435) was > 100 µM (inactive).

`COC(=O)C1=C(C)NC2=C(C(=O)c3ccccc32)C1c1c[nH]nc1-c1ccccc1` (stereo not drawn) was tested, and the GI50 (MDA-N) was 51.5 µM (inactive), the GI50 (Malme-3M) was 25.2 µM (inactive) and the GI50 (HOP-92) was > 100 µM (inactive). For the same molecule, the GI50 (RXF 393) was 43.4 µM (inactive), the GI50 (HOP-62) was 64.9 µM (inactive) and the GI50 (HL-60) was 39.8 µM (inactive). For the same molecule, the GI50 (MOLT-4) was 24.8 µM (inactive), the GI50 (SF-295) was > 100 µM (inactive) and the GI50 (UO-31) was > 100 µM (inactive). For the same molecule, the GI50 (IGROV-1) was 20.2 µM (inactive), the GI50 (SW-620) was 59.3 µM (inactive) and the GI50 (M14) was > 100 µM (inactive). For the same molecule, the GI50 (SK-MEL-5) was 31.8 µM (inactive), the GI50 (RPMI-8226) was 49 µM (inactive) and the GI50 (SN12C) was 72.9 µM (inactive). The GI50 (SK-MEL-28) was 49.4 µM (inactive), the GI50 (SK-OV-3) was > 100 µM (inactive) and the GI50 (COLO 205) was 20.9 µM (inactive). The GI50 (U-251) was 72.1 µM (inactive), the GI50 (CAKI-1) was 63.8 µM (inactive) and the GI50 (BT-549) was > 100 µM (inactive). For the same molecule, the GI50 (UACC-257) was 70.5 µM (inactive), the GI50 (A498) was 48.5 µM (inactive) and the GI50 (786-0) was > 100 µM (inactive). The GI50 (KM12) was 86.7 µM (inactive), the GI50 (NCI-H522) was 19.7 µM (inactive) and the GI50 (Hs-578T) was 21.5 µM (inactive). For the same molecule, the GI50 (OVCAR-3) was 48.6 µM (inactive), the GI50 (SF-268) was 26.2 µM (inactive) and the GI50 (ACHN) was 35.2 µM (inactive). For the same molecule, the GI50 (SNB-19) was 41.5 µM (inactive), the GI50 (OVCAR-8) was 38.1 µM (inactive) and the GI50 (K562) was > 100 µM (inactive). For the same molecule, the GI50 (OVCAR-5) was > 100 µM (inactive), the GI50 (SF-539) was 29.9 µM (inactive) and the GI50 (SNB-75) was 13.3 µM (inactive). The GI50 (MCF7) was 44.7 µM (inactive), the GI50 (OVCAR-4) was 54.7 µM (inactive) and the GI50 (NCI/ADR-RES) was 42.1 µM (inactive). For the same molecule, the GI50 (NCI-H23) was > 100 µM (inactive), the GI50 (UACC-62) was 35.6 µM (inactive) and the GI50 (HCT-116) was > 100 µM (inactive). The GI50 (PC-3) was 52.1 µM (inactive), the GI50 (NCI-H460) was 51.9 µM (inactive) and the GI50 (MDA-MB-231) was 30.1 µM (inactive). The GI50 (A549) was 47.6 µM (inactive), the GI50 (DU-145) was > 100 µM (inactive) and the GI50 (HCT-15) was 62.5 µM. The GI50 (CCRF-CEM) was 40.3 µM (inactive), the GI50 (SK-MEL-2) was 33.7 µM (inactive) and the GI50 (T47D) was 90.6 µM (inactive). For the same molecule, the GI50 (HT-29) was 24.3 µM (inactive), the GI50 (SR) was 24.4 µM (inactive) and the GI50 (NCI-H226) was 41.2 µM (inactive). The GI50 (EKVX) was 16.1 µM (inactive) and the GI50 (MDA-MB-435) was 57.4 µM (inactive).

For `O=S1(=O)C[C@@H](NCc2ccccc2)[C@H](NCc2ccccc2)C1`, the GI50 (MDA-N) was > 100 µM (inactive), the GI50 (Malme-3M) was > 100 µM (inactive) and the GI50 (HOP-92) was > 100 µM (inactive). For the same molecule, the GI50 (RXF 393) was > 100 µM (inactive), the GI50 (HOP-62) was 37.4 µM (inactive) and the GI50 (MOLT-4) was > 100 µM (inactive). The GI50 (SF-295) was > 100 µM (inactive), the GI50 (UO-31) was > 100 µM (inactive) and the GI50 (IGROV-1) was 26.2 µM (inactive). The GI50 (SW-620) was > 100 µM (inactive), the GI50 (M14) was 53.5 µM (inactive) and the GI50 (SK-MEL-5) was > 100 µM (inactive). For the same molecule, the GI50 (RPMI-8226) was > 100 µM (inactive), the GI50 (SN12C) was > 100 µM (inactive) and the GI50 (SK-MEL-28) was > 100 µM (inactive). The GI50 (SK-OV-3) was > 100 µM (inactive), the GI50 (HCC 2998) was > 100 µM (inactive) and the GI50 (COLO 205) was > 100 µM (inactive). For the same molecule, the GI50 (U-251) was > 100 µM (inactive), the GI50 (CAKI-1) was > 100 µM (inactive) and the GI50 (BT-549) was > 100 µM (inactive). For the same molecule, the GI50 (LOX IMVI) was > 100 µM (inactive), the GI50 (UACC-257) was > 100 µM (inactive) and the GI50 (KM12) was > 100 µM (inactive). The GI50 (NCI-H522) was 73.6 µM (inactive), the GI50 (Hs-578T) was > 100 µM (inactive) and the GI50 (OVCAR-3) was > 100 µM (inactive). The GI50 (SF-268) was > 100 µM (inactive), the GI50 (ACHN) was > 100 µM (inactive) and the GI50 (SNB-19) was > 100 µM (inactive). For the same molecule, the GI50 (OVCAR-8) was > 100 µM (inactive), the GI50 (K562) was > 100 µM (inactive) and the GI50 (OVCAR-5) was > 100 µM (inactive). For the same molecule, the GI50 (TK-10) was > 100 µM (inactive), the GI50 (SF-539) was > 100 µM (inactive) and the GI50 (SNB-75) was > 100 µM (inactive). The GI50 (MCF7) was > 100 µM (inactive), the GI50 (OVCAR-4) was > 100 µM (inactive) and the GI50 (NCI/ADR-RES) was > 100 µM (inactive). The GI50 (NCI-H23) was > 100 µM (inactive), the GI50 (UACC-62) was > 100 µM (inactive) and the GI50 (HCT-116) was > 100 µM (inactive). For the same molecule, the GI50 (PC-3) was > 100 µM (inactive), the GI50 (NCI-H460) was > 100 µM (inactive) and the GI50 (MDA-MB-231) was > 100 µM (inactive). For the same molecule, the GI50 (A549) was > 100 µM (inactive), the GI50 (DU-145) was > 100 µM (inactive) and the GI50 (CCRF-CEM) was > 100 µM (inactive). The GI50 (SK-MEL-2) was > 100 µM (inactive), the GI50 (T47D) was > 100 µM (inactive) and the GI50 (HT-29) was > 100 µM (inactive). The GI50 (SR) was > 100 µM (inactive), the GI50 (NCI-H226) was > 100 µM (inactive) and the GI50 (EKVX) was > 100 µM (inactive). For the same molecule, the GI50 (MDA-MB-435) was > 100 µM (inactive).
